Laboratory results from publication PMC4052943 (BioMed Research International, 2014).
Where two headings read alike, the source gives them in different places.

What was measured:
H1299 cells = assay: MTT cell proliferation assay; type: cell-based; settings: Homo sapiens, NCI-H1299, 48 h, read-out: inhibition of cells (antiproliferative activity, MTT)
Protocol: (§1) Inhibition of cell proliferation by PC and EA was measured with the MTT assay. Human lung cancer A549 and H1299 cells were obtained from ATCC (Manassas, VA, USA) and maintained in DMEM supplemented with 10% fetal calf serum (FCS), 1% penicillin/streptomycin. Cells were plated in 96-well culture plates (5 × 10^3 cells/well). After 24 h incubation, cells were treated with vehicle alone (0.1% DMSO) and PC and EA (12.5–200 μg/mL) extracts for 48 h. Then, the culture medium was replaced by 100 μL of fresh medium containing 0.5 mg/mL MTT, and the plates were incubated for 2 h at 37°C. The medium was then removed and was replaced by 200 μL of DMSO to solubilize the converted purple dye. The absorbance was measured with a spectrophotometer microplate reader at a wavelength of 570 nm.

A549 cells = assay: MTT cell proliferation assay; type: cell-based; settings: Homo sapiens, A549, 48 h, read-out: inhibition of cells (antiproliferative activity, MTT)
Protocol: as §1

[1] = system: Salmonella typhimurium TA100; assay: Ames antimutagenicity assay (preincubation); settings: for inhibition at 50 µM / inhibition at 100 µM / inhibition at 250 µM / inhibition at 500 µM: Salmonella enterica, TYPHIMURIUM;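 on all read-outs here: compound and mutagen preincubated together 30 min at 37°C before bacteria added, then plates incubated 48 h at 37°C, inhibition relative to mutagen-alone revertants after subtracting the negative control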
Protocol: (§2) In the preincubation experiment, test compounds and mutagen, each having a volume of 0.1 mL of varying concentrations, were preincubated at 37°C for 30 min and then 0.1 mL of 1 × 10^7 CFU/mL density of the bacterial culture was added, followed by the addition of 2.5 mL of top agar at 45°C (containing 0.5% NaCl and 0.6% agar) supplemented with 0.5 mM histidine-biotin. […] The combined solutions were vortexed and poured onto minimal glucose plates (40% glucose solution and Vogel Bonner medium). The plates were incubated at 37°C for 48 h and the numbers of histidine-independent revertants colonies were scored.
(§3) Survival of the bacteria was routinely monitored for each experiment. Parallel controls were run with compounds alone at all concentrations to test the possible toxicity. The concentrations of the test samples for investigating the antimutagenicity were 50, 100, 200, and 500 μM. […] All the test samples and mutagens were dissolved in DMSO (final conc., 0.01%). […] Plates were set up in triplicate for each concentration and the entire experiment was repeated three times. Inhibition of mutagenicity was expressed as percentage decrease of reverse mutation and calculated as (1) Percent inhibition=[(a−b)/(a−c)]×100, where a = number of histidine revertants induced by mutagen, b = number of histidine revertants induced by mutagen in the presence of test compound, and c = number of revertants induced in negative control.

[2] = system: BP-induced DNA adducts (rat liver microsomes, st-DNA); assay: Microsomal BP-DNA adducts, 32P-postlabeling; type: biochemical; settings: for BP-induced DNA adducts: BP 1 μM, rat liver microsomes, st-DNA
Protocol: st-DNA (300 μg/mL) was preincubated with 50 mM Tris-HCl (pH 7.5), 1 mM MgCl2, 2.5 mM glucose-6-phosphate, 1 U/mL G6PDH, 0.5 mM NADP+, and α-naphthoflavone-induced rat liver microsomal proteins (1 mg/mL) in 1 mL for 10 min, in the presence of vehicle alone and PC and EA at 20 and 40 μM. […] The incubation was continued for another 30 min at 37°C and then reaction was terminated by the addition of EDTA and centrifugation (9,000 g; 10 min). DNA was isolated from the supernatant by removal of RNA and proteins by digestions with RNases A and T1 and proteinase K and a series of extractions with phenol, phenol: Sevag (chloroform : isoamyl alcohol, 24 : 1), and Sevag, followed by precipitation of the DNA with ethanol. The DNA concentration was estimated spectrophotometrically.
DNA adducts were analyzed by ^32P-postlabeling as described earlier. Briefly, 10 μg of DNA was digested with micrococcal nuclease and spleen phosphodiesterase (MN/SPD). Before further treatment with nuclease P1 to enrich DNA adducts, an aliquot was removed for evaluation of normal nucleotide levels. DNA adducts and normal nucleotides were labelled with [γ-^32P]ATP and T4 polynucleotide kinase. Labelled adducts were separated by multidirectional polyethyleneimine (PEI)-cellulose TLC using the following solvents: D1, 1.0 M sodium phosphate, pH 6.0; D3, 4 M lithium formate/7 M urea, pH 3.5; D4, 4 M ammonium hydroxide/isopropanol (1 : 0.9); and D5, 1.7 M sodium phosphate, pH 6.0. Normal nucleotides were resolved in 180 mM sodium phosphate, pH 6.0, by one-directional PEI-cellulose TLC. DNA adducts and normal nucleotides were detected and quantified by Packard InstantImager.

[3] = system: Salmonella typhimurium TA102; assay: Ames antimutagenicity assay (preincubation); settings: for inhibition at 50 µM / inhibition at 100 µM / inhibition at 250 µM / inhibition at 500 µM: Salmonella enterica, TYPHIMURIUM;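 on all read-outs here: compound and mutagen preincubated 30 min at 37 °C before adding bacteria, His+ revertant colonies counted after 48 h at 37 °C, inhibition relative to mutagen-alone minus negative-control revertants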
Protocol: as §2, §3

O=C1O[C@H]2[C@@H]3OC(=O)c4cc(O)c(O)c(O)c4-c4c(O)c(O)c5oc(=O)c6c(c(O)c(O)c7oc(=O)c4c5c76)-c4c(cc(O)c(O)c4O)C(=O)OC[C@H]3OC(O)[C@@H]2OC(=O)c2cc(O)c(O)c(O)c2-c2c1cc(O)c(O)c2O (mixture of isomers) [Punicalagin]
inhibition at 50 µg/mL (H1299 cells): 57% | inhibition at 50 µg/mL (A549 cells): 34% | inhibition at 50 µM ([1]; read-out: % inhibition of mutagenicity, TA 100, 50 μM + 2AF, S9): 22.4% | inhibition at 50 µM ([1]; read-out: % inhibition of mutagenicity, TA 100, 50 μM + BP, S9): 30.6% | inhibition at 50 µM ([1]; read-out: % inhibition of mutagenicity, TA 100, 50 μM + MMS, no S9): 13.8% | inhibition at 50 µM ([1]; read-out: % inhibition of mutagenicity, TA 100, 50 μM + NaN3, no S9): 11.3% | inhibition at 100 µM ([1]; read-out: % inhibition of mutagenicity, TA 100, 100 μM + 2AF, S9): 43.8% | inhibition at 100 µM ([1]; read-out: % inhibition of mutagenicity, TA 100, 100 μM + BP, S9): 48.3% | inhibition at 100 µM ([1]; read-out: % inhibition of mutagenicity, TA 100, 100 μM + MMS, no S9): 30.8% | inhibition at 100 µM ([1]; read-out: % inhibition of mutagenicity, TA 100, 100 μM + NaN3, no S9): 33.1% | inhibition at 250 µM ([1]; read-out: % inhibition of mutagenicity, TA 100, 250 μM + BP, S9): 64% | inhibition at 250 µM ([1]; read-out: % inhibition of mutagenicity, TA 100, 250 μM + MMS, no S9): 45.3% | inhibition at 250 µM ([1]; read-out: % inhibition of mutagenicity, TA 100, 250 μM + NaN3, no S9): 54.6% | inhibition at 500 µM ([1]; read-out: % inhibition of mutagenicity, TA 100, 500 μM + 2AF, S9): 83.1% | inhibition at 500 µM ([1]; read-out: % inhibition of mutagenicity, TA 100, 500 μM + BP, S9): 84.5% | inhibition at 500 µM ([1]; read-out: % inhibition of mutagenicity, TA 100, 500 μM + MMS, no S9): 66% | inhibition at 500 µM ([1]; read-out: % inhibition of mutagenicity, TA 100, 500 μM + NaN3, no S9): 74.3% | Number of His+ revertants colonies/plate ([1]; TA 100, 50 μM + 2AF, S9): 426.7 ± 28.3 colonies/plate | Number of His+ revertants colonies/plate ([1]; TA 100, 50 μM + BP, S9): 530.3 ± 26.4 colonies/plate | Number of His+ revertants colonies/plate ([1]; TA 100, 50 μM + MMS, no S9): 856.3 ± 13.1 colonies/plate | Number of His+ revertants colonies/plate ([1]; TA 100, 50 μM + NaN3, no S9): 342.0 ± 4.7 colonies/plate | Number of His+ revertants colonies/plate ([1]; TA 100, 100 μM + 2AF, S9): 358.0 ± 12.2 colonies/plate | Number of His+ revertants colonies/plate ([1]; TA 100, 100 μM + BP, S9): 442.7 ± 31.4 colonies/plate | Number of His+ revertants colonies/plate ([1]; TA 100, 100 μM + MMS, no S9): 722.0 ± 15.0 colonies/plate | Number of His+ revertants colonies/plate ([1]; TA 100, 100 μM + NaN3, no S9): 301.7 ± 7.8 colonies/plate | Number of His+ revertants colonies/plate ([1]; TA 100, 250 μM + BP, S9): 366.0 ± 20.2 colonies/plate | Number of His+ revertants colonies/plate ([1]; TA 100, 250 μM + MMS, no S9): 601.3 ± 12.3 colonies/plate | Number of His+ revertants colonies/plate ([1]; TA 100, 250 μM + NaN3, no S9): 254.3 ± 10.8 colonies/plate | Number of His+ revertants colonies/plate ([1]; TA 100, 500 μM + 2AF, S9): 245.0 ± 9.6 colonies/plate | Number of His+ revertants colonies/plate ([1]; TA 100, 500 μM + BP, S9): 270.7 ± 15.6 colonies/plate | Number of His+ revertants colonies/plate ([1]; TA 100, 500 μM + MMS, no S9): 451.7 ± 15.6 colonies/plate | Number of His+ revertants colonies/plate ([1]; TA 100, 500 μM + NaN3, no S9): 232.3 ± 9.4 colonies/plate | BP-induced DNA adducts ([2]; 20 μM test compound): 42.9 ± 16 DNA adducts/10^8 nucleotides | BP-induced DNA adducts ([2]; 40 μM test compound): 7.2 ± 6.1 DNA adducts/10^8 nucleotides | inhibition of BP-induced DNA adducts ([2]; 40 μM, BP with rat liver microsomes, cofactors, DNA): 97% | inhibition at 50 µM ([3]; read-out: % inhibition of mutagenicity, TA 102, 50 μM + 2AF, S9): 38.7% | inhibition at 50 µM ([3]; read-out: % inhibition of mutagenicity, TA 102, 50 μM + BP, S9): 15.8% | inhibition at 50 µM ([3]; read-out: % inhibition of mutagenicity, TA 102, 50 μM + MMS, no S9): 17.5% | inhibition at 50 µM ([3]; read-out: % inhibition of mutagenicity, TA 102, 50 μM + NaN3, no S9): 18% | inhibition at 100 µM ([3]; read-out: % inhibition of mutagenicity, TA 102, 100 μM + 2AF, S9): 54.8% | inhibition at 100 µM ([3]; read-out: % inhibition of mutagenicity, TA 102, 100 μM + BP, S9): 28% | inhibition at 100 µM ([3]; read-out: % inhibition of mutagenicity, TA 102, 100 μM + MMS, no S9): 30.8% | inhibition at 100 µM ([3]; read-out: % inhibition of mutagenicity, TA 102, 100 μM + NaN3, no S9): 17.6% | inhibition at 250 µM ([3]; read-out: % inhibition of mutagenicity, TA 102, 250 μM + BP, S9): 58.6% | inhibition at 250 µM ([3]; read-out: % inhibition of mutagenicity, TA 102, 250 μM + MMS, no S9): 50.8% | inhibition at 250 µM ([3]; read-out: % inhibition of mutagenicity, TA 102, 250 μM + NaN3, no S9): 42.2% | inhibition at 500 µM ([3]; read-out: % inhibition of mutagenicity, TA 102, 500 μM + 2AF, S9): 81.6% | inhibition at 500 µM ([3]; read-out: % inhibition of mutagenicity, TA 102, 500 μM + BP, S9): 76.2% | inhibition at 500 µM ([3]; read-out: % inhibition of mutagenicity, TA 102, 500 μM + MMS, no S9): 74.1% | inhibition at 500 µM ([3]; read-out: % inhibition of mutagenicity, TA 102, 500 μM + NaN3, no S9): 59.8% | Number of His+ revertants colonies/plate ([3]; TA 102, 50 μM + 2AF, S9): 1028.0 ± 21.8 colonies/plate | Number of His+ revertants colonies/plate ([3]; TA 102, 50 μM + BP, S9): 635.0 ± 23.0 colonies/plate | Number of His+ revertants colonies/plate ([3]; TA 102, 50 μM + MMS, no S9): 1072.0 ± 10.7 colonies/plate | Number of His+ revertants colonies/plate ([3]; TA 102, 50 μM + NaN3, no S9): 346.3 ± 23.5 colonies/plate | Number of His+ revertants colonies/plate ([3]; TA 102, 100 μM + 2AF, S9): 854.0 ± 31.6 colonies/plate | Number of His+ revertants colonies/plate ([3]; TA 102, 100 μM + BP, S9): 595.0 ± 28.8 colonies/plate | Number of His+ revertants colonies/plate ([3]; TA 102, 100 μM + MMS, no S9): 942.0 ± 16.2 colonies/plate | Number of His+ revertants colonies/plate ([3]; TA 102, 100 μM + NaN3, no S9): 341.0 ± 19.1 colonies/plate | Number of His+ revertants colonies/plate ([3]; TA 102, 250 μM + BP, S9): 496.0 ± 17.4 colonies/plate | Number of His+ revertants colonies/plate ([3]; TA 102, 250 μM + MMS, no S9): 738.0 ± 14.8 colonies/plate | Number of His+ revertants colonies/plate ([3]; TA 102, 250 μM + NaN3, no S9): 310.7 ± 16.0 colonies/plate | Number of His+ revertants colonies/plate ([3]; TA 102, 500 μM + 2AF, S9): 563.0 ± 29.4 colonies/plate | Number of His+ revertants colonies/plate ([3]; TA 102, 500 μM + BP, S9): 438.0 ± 19.5 colonies/plate | Number of His+ revertants colonies/plate ([3]; TA 102, 500 μM + MMS, no S9): 509.0 ± 19.7 colonies/plate
